Key:
[1] = xn = mol fraction of the nth substance listed; conditions: Liquid, Vibrating tube method
[2] = molar heat capacity at constant pressure; xn = mol fraction of the nth substance listed; conditions: Liquid, Small sample (50 mg) DSC

C[n+]1ccn(CCO)c1.[Cl-] [1-(2-hydroxyethyl)-3-methyl-1H-imidazolium chloride] + O
Conditions	mass density, x1 = 0.0122 [kg/m3]	mass density, x1 = 0.0453 [kg/m3]	mass density, x1 = 0.0997 [kg/m3]	mass density, x1 = 0.2054 [kg/m3]	mass density, x1 = 0.3071 [kg/m3]	molar heat capacity at constant pressure, x1 = 0.0122 [J/K/mol]	molar heat capacity at constant pressure, x1 = 0.0453 [J/K/mol]	molar heat capacity at constant pressure, x1 = 0.0997 [J/K/mol]	molar heat capacity at constant pressure, x1 = 0.2054 [J/K/mol]	molar heat capacity at constant pressure, x1 = 0.3071 [J/K/mol]
[1], 298.15 K	1016.85	1059.73	1107.52	1136.95	1187.93	–	–	–	–	–
[1], 303.15 K	1015.23	1057.69	1105.14	1134.43	1185.25	–	–	–	–	–
[1], 308.15 K	1013.43	1055.55	1102.71	1131.88	1182.56	–	–	–	–	–
[1], 313.15 K	1011.46	1053.3	1100.22	1129.28	1179.87	–	–	–	–	–
[1], 318.15 K	1009.27	1050.94	1097.68	1126.66	1177.16	–	–	–	–	–
[1], 323.15 K	1005.9	1048.46	1095.08	1123.99	1174.45	–	–	–	–	–
[2], 298.15 K	–	–	–	–	–	75.34	79.99	88.41	107.22	124.59
[2], 303.15 K	–	–	–	–	–	75.7	80.58	89.25	108.22	125.97
[2], 308.15 K	–	–	–	–	–	76.07	81.14	90.1	109.32	127.4
[2], 313.15 K	–	–	–	–	–	76.41	81.68	90.91	110.27	128.97
[2], 318.15 K	–	–	–	–	–	76.86	82.39	91.91	111.66	130.65
[2], 323.15 K	–	–	–	–	–	77.24	83.01	92.79	112.94	132.15
[2], 328.15 K	–	–	–	–	–	77.61	83.57	93.66	114.19	133.71
[2], 333.15 K	–	–	–	–	–	77.97	84.16	94.54	115.52	135.39
[2], 338.15 K	–	–	–	–	–	78.39	84.85	95.51	117	137.33
[2], 343.15 K	–	–	–	–	–	78.9	85.64	96.65	118.67	139.45
[2], 348.15 K	–	–	–	–	–	79.24	86.2	97.49	120.06	141.39
[2], 353.15 K	–	–	–	–	–	79.67	86.89	98.46	121.68	143.57

— the NIST ThermoML archive (doi:10.1021/je3007953)
